Values quoted from earlier work in patent US20200397766A1, “POROUS EMBOLIZATION MICROSPHERES COMPRISING DRUGS” (VAN RIJN BEHEER B.V., priority 2018, published 2020).

## OCCN(CCO)c1nc(N2CCCCC2)c2nc(N(CCO)CCO)nc(N3CCCCC3)c2n1 [Dipyridamole, dipyridamole]
DMSO
  solubility in DMSO: high solubility in DMSO
water
  solubility in water: low solubility in water
